In patent US20150322403A1, “REGULATION OF EUKARYOTIC GENE EXPRESSION BY RIBOSOMAL READING-FRAME SWITCH EFFICIENCY CONTROL VIA REGULATORY ELEMENT UPSTREAM OF THE FRAMESHIFTING SITE” (NATIONAL CHUNG HSING UNIVERSITY, priority 2014, published 2015):

Legend:
[1] = tested on: theo-OFF2 element and SAH-sensing pseudoknot stimulator; assay: -1 PRF activity, theo-OFF2 plus SAH-sensing pseudoknot, wheat germ lysate; assay type: biochemical; details: theo-OFF2 fused with SAH-dependent stimulator
Source text: We also fused theo-OFF2 with an SAH-dependent −1 PRF stimulator and examined the ligand-dependent −1 PRF activity in vitro using wheat germ lysate.

[2] = tested on: theo-OFF1 element (theophylline aptamer); assay: in vitro -1 PRF activity analysis, upstream theo-OFF1 element, reticulocyte lysate; details: DU177 pseudoknot stimulator, increasing amounts of theophylline
Source text: The boxed nucleotides were deleted in the negative control theo-mOFF1 element.

theo-OFF2 element = assay: -1 PRF activity analysis, upstream theo-OFF2 element, wheat germ extract; details: wheat germ lysate, compared with reticulocyte lysate
theo-ON element = assay: in vitro -1 PRF activity analysis, upstream theo-ON element, reticulocyte lysate; details: DU177 pseudoknot stimulator
[3] = tested on: GlcT-OFF RNA element (RAT sequence) upstream of the slippery site; assay: in vitro -1 PRF activity analysis, upstream GlcT-OFF element, reticulocyte lysate; assay type: biochemical; details: DU177 pseudoknot stimulator, increasing amounts of protein
Source text: (§1) Mfold was used to predict structures and free energies of the attenuator and anti-attenuator hairpins.
As the ribonucleic-antiterminator (RAT) sequence of Bacillus subtilis ptsGHI operon adopts an unstable internal loop conformation and can be stabilized by the binding of GlcT antiterminator protein (Langbein, I. et al, J. Mol. Biol. 293, 795-805, 1999), we designed a chimeric RNA element containing an RAT sequence (GlcT-OFF) with the 3′-side of RAT internal loop embedded in a stable hairpin stem and placed the chimeric RNA element upstream of the slippery site with a potent downstream −1 PRF stimulator (FIG. 3A). We rationalized that the engineered hairpin is the dominant conformation and serves as an upstream −1 PRF attenuator, whereas the addition of GlcT protein should disrupt the attenuator hairpin via RAT-GlcT complex formation and thus restore −1 PRF activity.
We then designed the second chimera to down-regulate the −1 PRF by the formation of an efficient attenuator hairpin promoted by the same RNA-protein interactions (FIG. 3A).

GlcT-ON RNA element = assay: in vitro -1 PRF activity analysis, upstream GlcT-ON element, reticulocyte lysate; assay type: biochemical; details: DU177 pseudoknot stimulator, increasing amounts of protein
Source text: as §1
Therefore, the GlcT-ON RNA element is embedded with three potential RNA motifs; that is, an RAT internal loop, an anti-attenuator hairpin and an efficient −1 PRF attenuator hairpin with the component of the anti-attenuator hairpin being overlapped with the other two motifs. Without the GlcT protein, this anti-attenuator hairpin might be the dominant conformation. Upon GlcT protein addition, the equilibrium might be driven by RNA-protein interaction to disrupt the anti-attenuator hairpin stem and thus release its 3′-side to facilitate the formation of an efficient −1 PRF attenuator hairpin.
Together, these proof-of-principle experiments indicate that −1 PRF activity can be regulated in-trans via a set of RNA-protein interactions designed to control the formation of an upstream −1 PRF attenuation hairpin.

Molecule: Nc1ncnc2c1ncn2[C@@H]1O[C@H](CSCC[C@H](N)C(=O)O)[C@@H](O)[C@H]1O [SAH]
- -1 frameshifting efficiency in wheat germ lysate [1]: only mildly increased

Molecule: Cn1c(=O)c2[nH]cnc2n(C)c1=O [theophylline]
- in vitro -1 PRF activity of reporter harboring theo-OFF1 [2]: up-regulated
- dynamic range of theophylline-dependent -1 PRF activity, theo-OFF2 (theo-OFF2 element): even higher dynamic range
- -1 PRF activity of reporter with theo-ON (theo-ON element): down-regulation

B1: GlcT protein: GlcT antiterminator protein binding the RAT sequence of Bacillus subtilis ptsGHI operon (protein, UniProt O31691 1-281, looked up)
PtsGHI operon antiterminator: MNGSFTVKKVLNNNVLIASHHKYSEVVLIGKGIGFGKKQDDVIEDKGYDKMFILKDEKEQKQFKKLLDYVDEKLVDISNDVIYHISNRTNHSLNEHIHIALTDHIAFAIKRQQQGFDMKNPFLMETQSLYPEEYQIAKEVIDMINEKAGLCLPEGEIGFIALHIHSALTNRPLSEVNQHSQLMAQLVEVIEDSFQMKVNKESVNYLRLIRHIRFTIERIKKEEPTKEPEKLMLLLKNEYPLCYNTAWKLIKILQQTLKKPVHEAEAVYLTLHLYRLTNKIS
- in vitro -1 PRF efficiency of reporter containing GlcT-OFF [3]: up-regulated
- in vitro -1 PRF activity of reporter containing GlcT-ON (GlcT-ON RNA element): repressed
